A short description of series [1]: Antitumor activity against human Cisplatin/etoposide-resistant NCI-H446/EP cells assessed as inhibition of cell growth by SRB assay. The series is classed as functional, cell-based. For orientation: In SRB staining, fixed cells bind dye roughly in proportion to their protein.
Series [2] can be described thus: Antitumor activity against human L02 cells assessed as inhibition of cell growth by SRB assay. In kind it is toxicity, cell-based.
The next series concerns K562. The series can be described thus: Antitumor activity against human K562 cells assessed as inhibition cell growth by MTT assay. The series is classed as functional, cell-based.
In the next series the test system is NCI-H446. The series is described as follows: Antitumor activity against human NCI-H446 cells assessed as inhibition of cell growth by SRB assay. In kind it is functional, cell-based.
In the next series the test system is ASPC1. The series can be described thus: Antitumor activity against human ASPC1 cells assessed as inhibition of cell growth by SRB assay. In kind it is functional, cell-based.
The subject of another series is MDA-MB-231. The series is described as follows: Antitumor activity against human MDA-MB-231 cells assessed as inhibition of cell growth by SRB assay. The series is classed as functional, cell-based.
The subject of another series is Bacillus cereus. The series is described as follows: Antimicrobial activity against Bacillus cereus ATCC 4342 assessed as inhibition of microbial growth incubated for 24 hrs by microdilution method. The series is classed as functional, organism-based. (In general: Broth dilution looks for growth in wells or tubes with falling amounts of substance.)
Series [3] deals with Staphylococcus aureus. The series can be described thus: Antimicrobial activity against Staphylococcus aureus ATCC 29213 assessed as inhibition of microbial growth incubated for 24 hrs by microdilution method. The series is classed as functional, organism-based.
Series [4] relates to Staphylococcus aureus. The series can be described thus: Antimicrobial activity against methicillin-resistant Staphylococcus aureus assessed as inhibition of microbial growth incubated for 24 hrs by microdilution method. In kind it is functional, organism-based.

Structures can show the parent of a compound that is named as a salt.

What is called IC50 is the concentration that inhibits the measured activity by half. As for `Cc1cc(=O)c2c(C/C=C/[C@@H](O)Cc3cc(O)cc(=O)o3)cc(O)cc2o1`, the IC50 in series [1] was greater than 50 µM; in series [2] it was greater than 50 µM; in the series with K562 it was greater than 50 µM; in the series on NCI-H446 it was greater than 50 µM; in the series on ASPC1, less than 50 µM; in the series on MDA-MB-231, greater than 50 µM.

On to `CC1=CC(=O)c2c(O)cccc2[C@]12Oc1cc(O)cc(C)c1C2=O`, for which the Activity result in the series with Bacillus cereus, with Staphylococcus aureus [3] and with Staphylococcus aureus [4] was “Weak_effect” each time. Moreover, the IC50 (in series [1]; in series [2]; with K562; in the series on NCI-H446; in the series with ASPC1; in the series with MDA-MB-231) was greater than 50 µM each time.

Turning to `Cc1cc(=O)c2c3c(c(O)cc2o1)/C(=C/c1cc(=O)cc(O)o1)C[C@@H](O)C3`, the IC50 (in [1]; in series [2]; with K562; in the series on NCI-H446; in the series with ASPC1; in the series on MDA-MB-231) was greater than 50 µM throughout.

Consider `COc1cccc2c1C(=O)c1c(O)c3c(c(O)c1C2=O)C[C@@](O)(C(=O)CO)C[C@@H]3O[C@H]1C[C@H](N)[C@H](O)[C@H](C)O1` [DOXORUBICIN HYDROCHLORIDE], for which the IC50 in series [1] came out at 11.2 µM; in [2], 0.33 µM; in the series on NCI-H446, 0.8 µM; in the series with ASPC1, 5.91 µM.

As for `Cc1cc(=O)c2c3c(c(O)cc2o1)[C@](O)(Cc1cc(=O)cc(O)o1)C[C@@H](O)C3`, the IC50 (in series [1]; in series [2]; in the series on K562; in the series on NCI-H446; in the series on ASPC1; in the series with MDA-MB-231) was greater than 50 µM in each case.

In the case of `Cc1cc(=O)c2c(CCCC(=O)Cc3cc(O)cc(=O)o3)cc(O)cc2o1`, the Activity result in the series with Bacillus cereus, with Staphylococcus aureus [3] and with Staphylococcus aureus [4] was “Weak_effect” throughout. For the same molecule, the IC50 was greater than 50 µM in [1]; less than 50 µM in series [2]; greater than 50 µM in the series with K562; less than 50 µM in the series on NCI-H446; greater than 50 µM with ASPC1; greater than 50 µM with MDA-MB-231.

In the case of `CC1=CC(=O)c2c(O)cccc2[C@@]12Oc1cc(O)cc(C)c1C2=O`, the Activity entry with Bacillus cereus, in the series with Staphylococcus aureus [3] and in the series on Staphylococcus aureus [4] was “Weak_effect” throughout. The IC50 in [1] was less than 50 µM; in [2], greater than 50 µM; in the series with K562, greater than 50 µM; with NCI-H446, 2.26 µM; with ASPC1, greater than 50 µM; in the series with MDA-MB-231, greater than 50 µM.

The values above are taken from ChEMBL document CHEMBL6103627, “(±)-Feionemycin A and Chromonemycins A-D, Rearranged Aromatic Polyketides Uncovered by Type II Polyketide Gene Cluster Expression” (J Nat Prod, 2025).
